This is an account of results in paper PMC10046901, “Molecular Analysis of the Superior Efficacy of a Dual Epidermal Growth Factor Receptor (EGFR)-DNA-Targeting Combi-Molecule in Comparison with Its Putative Prodrugs 6-Mono-Alkylamino- and 6,6-Dialkylaminoquinazoline in a Human Osteosarcoma Xenograft Model” (Cells, 2023).

One experiment relates to U2-OS. The experiment in a line: cells. To be noted: Homo sapiens, U2OS, 120 h, read-out: IC50 growth inhibition. It counts as cell-based.
The next experiment has as its system Saos-2. The experiment in a line: cells. To be noted: Homo sapiens, SAOS-2, 120 h, read-out: IC50 growth inhibition. It counts as cell-based, human.
For a further experiment, the system named is MG-63. The experiment in a line: cells. It counts as cell-based. The settings on record: Homo sapiens, MG-63, 120 h, read-out: IC50 growth inhibition.
For the next experiment, the system named is MNNG/HOS. The experiment in a line: cells. It counts as cell-based. The settings on record: 120 h, read-out: IC50 growth inhibition.
The test system of a further experiment is KHOS/NP. The experiment in a line: cells. In kind it is cell-based. To be noted: Homo sapiens, 120 h, read-out: IC50 growth inhibition.
In experiment [1] the test system is several other osteosarcoma cell lines. Set-up: method as in PMID 23091447. The settings on record: concentrations of up to 20 μM; cited from earlier work.

Take `O=C(O)CCCc1ccc(N(CCCl)CCCl)cc1` [Chlorambucil, chlorambucil, reference compound]: the IC50 was 9.59 ± 0.55 µM in the experiment with U2-OS; 7.53 ± 0.75 µM in the experiment on Saos-2; 13.1 ± 1.28 µM with MG-63; 12.1 ± 1.01 µM in the experiment with MNNG/HOS; 9.25 ± 1.35 µM with KHOS/NP.

With `COc1cc2ncnc(Nc3ccc(F)c(Cl)c3)c2cc1OCCCN1CCOCC1` [Gefitinib, gefitinib], the “effect on viability of osteosarcoma cell lines” value in experiment [1] is given as “did not reduce the viability”.
